Data from paper PMC8698959, “A Combination of Structural, Genetic, Phenotypic and Enzymatic Analyses Reveals the Importance of a Predicted Fucosyltransferase to Protein O-Glycosylation in the Bacteroidetes” (Biomolecules, 2021).

Assays:
rBF4306 (FucT) = biological target: T1, rBF4306 (FucT) (Bacteroides fragilis, UniProt Q5L7H9); experiment: TLC and ESI-MS of fucosylated product; type: biochemical; settings: 5 mM MgCl2, 5 mM MnCl2, pH 7.4, 37 °C, overnight
T1 construct: gene BF9343_4192; tag kept; partly degraded
T1 sequence (Q5L7H9 entry or part of it): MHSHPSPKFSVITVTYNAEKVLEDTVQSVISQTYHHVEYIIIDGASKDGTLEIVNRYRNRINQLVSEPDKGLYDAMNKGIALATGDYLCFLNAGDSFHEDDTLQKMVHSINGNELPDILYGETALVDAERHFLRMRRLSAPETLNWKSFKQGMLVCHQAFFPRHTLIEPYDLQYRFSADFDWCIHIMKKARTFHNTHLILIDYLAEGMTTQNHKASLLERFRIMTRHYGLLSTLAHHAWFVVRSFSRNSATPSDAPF
From the text: (§1) All three enzymes transferred L-Fuc to pNP-α-Gal

rPhep_4048 (FucT) = biological target: T2, rPhep_4048 (FucT) (Pedobacter heparinus, UniProt C6XWF0); experiment: TLC and ESI-MS of fucosylated product; type: biochemical; settings: donor; acceptor pNP-α-D-Gal 8 mM, 5 mM MgCl2, 5 mM MnCl2, pH 7.4, 37 °C, overnight
T2 construct: gene Phep_4048; tag kept; partly degraded
T2 sequence (C6XWF0 1-252): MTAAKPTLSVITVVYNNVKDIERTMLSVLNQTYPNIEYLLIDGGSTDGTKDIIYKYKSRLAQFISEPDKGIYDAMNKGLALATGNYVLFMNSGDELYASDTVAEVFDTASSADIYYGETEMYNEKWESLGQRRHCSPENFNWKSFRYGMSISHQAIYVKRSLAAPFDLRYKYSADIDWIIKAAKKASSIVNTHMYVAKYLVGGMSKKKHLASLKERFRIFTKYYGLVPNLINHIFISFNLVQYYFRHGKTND
From the text: as §1

SMILES	TLC and ESI-MS of fucosylated product (rBF4306 (FucT); 2 mM GDP-L-Fuc, 8 mM acceptor)	TLC and ESI-MS of fucosylated product (rBF4306 (FucT); donor, acceptor pNP-α-D-Glc 8 mM)	TLC and ESI-MS of fucosylated product (rPhep_4048 (FucT))
O=[N+]([O-])c1ccc(O[C@H]2O[C@H](CO)[C@@H](O)[C@H](O)[C@H]2O)cc1 [pNP-α-D-Glc]	rBF4306 demonstrated very low activity with all substrates; pNP-α-Glc was the best substrate		
C[C@@H]1O[C@H](OP(=O)(O)OP(=O)(O)OC[C@H]2O[C@@H](n3cnc4c(=O)[nH]c(N)nc43)[C@H](O)[C@@H]2O)[C@@H](O)[C@H](O)[C@@H]1O [GDP-L-Fuc]		with GDP-L-Fuc serving as the Fuc donor. All three enzymes transferred L-Fuc to pNP-α-Gal	with GDP-L-Fuc serving as the Fuc donor. All three enzymes transferred L-Fuc to pNP-α-Gal
